Assay results published in patent US20260078114A1, “COMPOUND USED AS INHIBITOR OF CDK4 KINASE AND USE THEREOF” (TYK MEDICINES, INC., priority 2022, published 2026).

Tests used:
[1] = test system: ovarian cancer cell A2780; assay: Cellular antiproliferative assay (MTT, 5 days), A2780; format: cell-based, human; settings: Homo sapiens, 120 h, A2780 cells, 5 days incubation
Protocol: (§1) Human breast cancer cell MCF-7, ovarian cancer cell A2780, human mantle cell lymphoma cell JEKO-1. DMEM medium (Bio-Channel), DMSO (dimethyl sulfoxide), MTT (thiazolyl blue), 0.25% EDTA-Tripsin (tryptic digest), 1×PBS (phosphate buffer, PH7.2), 96-well plate (Corning), fetal bovine serum (FBS), 10,000 U/mL penicillin-G/streptomycin, high-speed cryo-centrifuge (EPPENDORF 5810R), enzyme-linked immunoassay (Tecan Spark).
(§2) • A) Tumor cells were cultured in DMEM (high sugar with 10% FBS and 100 U/mL penicillin-G/streptomycin) at 37° C., 5% CO2 and saturated humidity until 80-90% dense. • B) Removed the culture medium from 10 cm Petri dishes; • C) Rinsed the cells once with 10 ml 1×PBS; • D) Added 4 ml 0.25% EDTA-Tripsin into 37° C., 5% CO2 incubator for trypsin digestion for 5 minutes, transferred to 15 ml centrifuge tube, centrifuged at 200 g for 5 minutes, discarded the supernatant to get cell precipitate; • E) Resuspended with 4 ml DMEM medium, counted and adjust to 50,000 cells/ml. • F) Added cell suspension to 96-well plate with 100 μL per well volume and incubated overnight at 37° C., 5% CO2 incubator.
(§3) • A) Preparation of gradient dilution solution of the tested compound: the test compound was configured into 1 mM reservoir solution.
(§4) • A) Taking the cell culture plate and adding 10 μL of 5 mg/ml MTT in the biosafety cabinet; • B) Putting the cell culture plate back into the incubator and continued incubation for 3 hours; • C) Taking the cell culture plate and removing the culture medium, adding 100 μL isopropanol (containing 0.4 mM HCl, 0.1% NP-40), and shaking the bed at room temperature for 30 min; and • D) Determining the absorbance value by selecting 570 nm on a TECAN enzyme-linked immunoassay detector.
(§5) The % Cell Viability was calculated using the following formula:
(§6) [formula] • Lum_HC: 0.1% DMSO control cell reading • Lum_Sample: cell readings with compound added • Lum_LC: Blank medium reading

[2] = test system: Human breast cancer cell MCF-7; assay: Cellular antiproliferative assay (MTT, 5 days), MCF-7; format: cell-based; settings: Homo sapiens, MCF7, 120 h, MCF-7 cells, 5 days incubation
Protocol: as §1, §2, §3, §4, §5, §6

[3] = target: CDK6/CyclinD3 (Homo sapiens, UniProt Q00534); assay: Kinase activity test (mobility shift assay, EZ Reader), CDK6; format: biochemical; settings: CDK6/CyclinD3 5.00 nM, ATP 350 μM, FL-Peptide34
Sequence of CDK6/CyclinD3 (Q00534 whole entry, species assumed): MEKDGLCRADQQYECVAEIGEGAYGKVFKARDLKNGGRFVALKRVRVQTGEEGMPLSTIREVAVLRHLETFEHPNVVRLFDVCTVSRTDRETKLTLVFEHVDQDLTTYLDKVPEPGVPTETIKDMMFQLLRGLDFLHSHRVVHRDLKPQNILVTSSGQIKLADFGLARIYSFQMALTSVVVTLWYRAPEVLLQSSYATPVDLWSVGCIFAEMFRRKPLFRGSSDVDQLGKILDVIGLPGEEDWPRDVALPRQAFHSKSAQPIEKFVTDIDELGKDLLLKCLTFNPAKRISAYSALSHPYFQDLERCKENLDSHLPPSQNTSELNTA
Sequence of CDK6/CyclinD3 (P30281 whole entry partner, species assumed): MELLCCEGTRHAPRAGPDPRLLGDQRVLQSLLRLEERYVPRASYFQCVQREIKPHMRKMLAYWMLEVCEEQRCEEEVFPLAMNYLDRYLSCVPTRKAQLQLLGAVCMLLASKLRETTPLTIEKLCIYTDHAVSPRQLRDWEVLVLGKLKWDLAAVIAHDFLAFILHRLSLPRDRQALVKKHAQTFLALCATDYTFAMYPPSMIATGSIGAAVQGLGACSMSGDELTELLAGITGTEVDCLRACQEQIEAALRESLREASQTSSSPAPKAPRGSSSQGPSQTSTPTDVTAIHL

[4] = test system: human mantle cell lymphoma cell JEKO-1; assay: Cellular antiproliferative assay (MTT, 5 days), JEKO-1; format: cell-based; settings: Homo sapiens, 120 h, JEKO-1 cells, 5 days incubation
Protocol: as §1, §2, §3, §4, §5, §6

[5] = target: CDK4/CycD1 (Homo sapiens, UniProt P11802); assay: Kinase activity test (mobility shift assay, EZ Reader), CDK4
Sequence of CDK4/CycD1 (P11802 whole entry, species assumed): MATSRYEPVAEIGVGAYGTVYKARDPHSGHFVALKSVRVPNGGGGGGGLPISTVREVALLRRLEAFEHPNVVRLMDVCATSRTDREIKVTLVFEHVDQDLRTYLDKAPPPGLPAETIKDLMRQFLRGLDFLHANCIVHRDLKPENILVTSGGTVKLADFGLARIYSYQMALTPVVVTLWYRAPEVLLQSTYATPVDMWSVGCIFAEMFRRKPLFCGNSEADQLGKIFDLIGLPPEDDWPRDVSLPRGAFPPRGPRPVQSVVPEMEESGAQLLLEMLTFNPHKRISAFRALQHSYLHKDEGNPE
Sequence of CDK4/CycD1 (P24385 whole entry partner, species assumed): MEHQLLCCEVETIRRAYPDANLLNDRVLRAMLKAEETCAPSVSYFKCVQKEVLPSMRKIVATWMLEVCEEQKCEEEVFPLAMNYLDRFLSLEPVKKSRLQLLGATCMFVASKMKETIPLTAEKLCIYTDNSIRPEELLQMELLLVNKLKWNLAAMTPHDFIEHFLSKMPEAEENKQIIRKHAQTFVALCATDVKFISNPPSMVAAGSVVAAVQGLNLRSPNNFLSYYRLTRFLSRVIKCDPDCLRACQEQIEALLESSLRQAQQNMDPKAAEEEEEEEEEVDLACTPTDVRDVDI
Protocol: The tested compounds were subjected to CDK4 and CDK6 kinase IC50 values test.
• (1) Preparing a 1.3× enzyme solution containing enzyme, substrate and cofactor as shown below. • (2) Adding 15 μL of 1.3× enzyme solution to each well and incubating for 30 min at room temperature. • (3) Starting the reaction by adding 5 μL of 4×ATP solution, with each test well containing the listed components and a final volume of 20 μL. • (4) Incubating for 150 minutes and then stopping the reaction by adding 75 μL of buffer (containing 0.5 M EDTA). • (5) Reading the data from each test well by EZ for analysis.
Percentage inhibition was calculated using the read conversion ratio (CR) according to the formula below:
The wells treated with DMSO were used as positive control (positive control) and the wells without enzyme were used as negative control (negative control).

[6] = Preclinical rat pharmacokinetic test; format: in vivo; settings: male SD rats, gavage (p.o.), 10 mg/kg, plasma; for AUC(0-t) / Cmax / Tmax: Sprague-Dawley (SD), rat, po
Protocol: Healthy adult SD rats, male, 6-8 weeks old, weighing 200-300 g. EDTA-Na2 anticoagulant. Analytical balance, animal weight scale, magnetic stirrer, freezing centrifuge, single-channel manual pipette. About 10 mg of the sample to be tested was precisely weighed, the converted 5% DMSO was added to dissolve, and then 10 percent solutol HS-15 and 85% saline were added, ultrasonic treatment was performed, vortex mixed, to obtain the solution having a concentration of 1 mg/mL; freshly prepared before use. Animals were kept in rat cages and fasted (not less than 10 h) the day before the test, but not water fasted; on the day of the test, they were weighed and labeled at the tail. Blank blood was collected before drug administration. Blood was collected from the tail vein. • Route of administration: gavage (p.o.). • Dose: 10 mg/kg • Administration volume: 10 mL/kg • Operation procedure: Hold the rat with the left hand with anti-biting gloves, made it stand upright, extent the 16-gauge gavage needle from the throat in the mouth, and then injected the drug into the stomach when there was no obvious resistance. Before and 0.5 […] and 24 h after the administration of the drug, 0.1 ml of whole blood from the test animal was collected in EDTA-Na2 anticoagulant tubes, which was mixed upside down for 3-4 times and then centrifuged at 10,000 g for 5 min at 4° C. to isolate the plasma, which was stored at -80° C. for testing. Blood was collected from the tail vein. […] Pipetted 25 μL of rat blank plasma in a centrifuge tube respectively, added 25 μL of prepared standard series solution (prepared in methanol), then added 200 μL of internal standard solution (prepared in methanol), vortexed and mixed for 2 min, centrifuged at 4° C., 10,000 g for 10 min. Unknown plasma samples treatment: 25 μL of rat plasma containing drug was aspirated, 25 μL of methanol and 200 μL of internal standard solution were added sequentially, vortexed and mixed for 2 min, and then centrifuged at 4° C. and 10,000 g for 10 min. The supernatant was extracted for LC/MS/MS detection. Shimadzu liquid phase and Triple Quad TM 6500+AB mass spectrometry were utilized to establish a quantitative assay for the compounds to be tested. The pro-drug concentration in plasma was determined. The blood drug concentration-time curves were plotted, and the main pharmacokinetic parameters were calculated using the non-compartment model in winnonlin Phoenix software, and the detailed data were shown in Table 3.

SMILES	IC50 [1] [µM]	IC50 [2] [µM]	IC50 [3] [µM]	IC50 [4] [µM]	IC50 [5] [µM]	AUC(0-t) [6] [µg·h/mL]	Cmax [6] [µg/mL]	Tmax [6] [h]	HL— [6] [h]
CC(C)N1CCOc2c(F)cc(-c3nc(N[C@@H]4CCOC[C@H]4O)ncc3Cl)cc21 [TA-1]	≤ 0.5	≤ 0.5	0.0236	≤ 0.5	0.000849	–	–	–	–
CC(C)N1C(=O)COc2c(F)cc(-c3nc(N[C@@H]4CCOC[C@H]4O)ncc3Cl)cc21 [TA-2, 6-(5-chloro-2-(((3S,4R)-3-hydroxytetrahydro-2H-pyran-4-yl)amino)pyrimidin-4-yl)-8-fluoro-4-isopropyl-2H-benzo[b][1,4]oxazin-3(4H)-one]	≤ 0.5	0.5 to 2	0.109	≤ 0.5	0.0423	–	–	–	–
CC(C)N1CCOc2c(F)cc(-c3ccnc(N[C@@H]4CCOC[C@H]4O)n3)cc21 [TA-4, (3S,4R)-4-((4-(8-fluoro-4-isopropyl-3,4-dihydro-2H-benzo[b][1,4]oxazin-6-yl)pyrimidin-2-yl)amino)tetrahydro-2H-pyran-3-ol]	≤ 0.5	≤ 0.5	0.116	≤ 0.5	0.0104	–	–	–	–
CC(C)N1CCOc2c(F)cc(-c3nc(N[C@@H]4CCOC[C@H]4O)ncc3F)cc21 [TA-5, (3S,4R)-4-((5-fluoro-4-(8-fluoro-4-isopropyl-3,4-dihydro-2H-benzo[b][1,4]oxazin-6-yl)pyrimidin-2-yl)amino)tetrahydro-2H-pyran-3-ol]	≤ 0.5	≤ 0.5	0.0302	≤ 0.5	0.00311	–	–	–	–
CC(C)N1CCOc2c(F)cc(-c3nc(NC4CCN(S(C)(=O)=O)CC4)ncc3F)cc21 [TA-6, 5-fluoro-4-(8-fluoro-4-isopropyl-3,4-dihydro-2H-benzo[b][1,4]oxazin-6-yl)-N-(1-(methylsulfonyl)piperidin-4-yl)pyrimidin-2-amine]	≤ 0.5	≤ 0.5	0.0137	≤ 0.5	0.00429	–	–	–	–
CC(C)N1CCOc2c(F)cc(-c3nc(NC4CCCC(C(=O)N(C)C)C4)ncc3F)cc21 (stereo not shown) [TA-7, 3-((5-fluoro-4-(8-fluoro-4-isopropyl-3,4-dihydro-2H-benzo[b][1,4]oxazin-6-yl)pyrimidin-2-yl)amino)-N,N-dimethylcyclohexane-1-carboxamide]	≤ 0.5	≤ 0.5	> 0.5	≤ 0.5	0.0177	–	–	–	–
CC(C)N1CCOc2c(F)cc(-c3nc(NC4CCN(S(C)(=O)=O)CC4)ncc3Cl)cc21 [TA-11, 5-chloro-4-(8-fluoro-4-isopropyl-3,4-dihydro-2H-benzo[b][1,4]oxazin-6-yl)-N-(1-(methylsulfonyl)piperidin-4-yl)pyrimidin-2-amine]	≤ 0.5	≤ 0.5	0.0247	≤ 0.5	0.00719	–	–	–	–
CC(C)N1CCOc2c(F)cc(-c3nc(NC4CCCC(C(=O)N(C)C)C4)ncc3Cl)cc21 (stereo not shown) [TA-14, 3-((5-chloro-4-(8-fluoro-4-isopropyl-3,4-dihydro-2H-benzo[b][1,4]oxazin-6-yl)pyrimidin-2-yl)amino)-N,N-dimethylcyclohexane-1-carboxamide]	–	–	> 0.5	–	0.0694	–	–	–	–
CC(=O)N1CCC[C@@H](Nc2ncc(Cl)c(-c3cc(F)c4c(c3)N(C(C)C)CCO4)n2)C1 [TA-16, (R)-1-(3-((5-chloro-4-(8-fluoro-4-isopropyl-3,4-dihydro-2H-benzo[b][1,4]oxazin-6-yl)pyrimidin-2-yl)amino)piperidin-1-yl)ethan-1-one]	–	–	0.0991	–	0.0153	–	–	–	–
CC(C)N1CCOc2c(F)cc(-c3nc(N[C@@H]4CCC[C@H](NS(C)(=O)=O)C4)ncc3Cl)cc21 [TA-17]	–	–	0.0834	–	0.0227	–	–	–	–
CC(C)C(=O)N(c1cc(F)cc(-c2nc(N[C@@H]3CCOC[C@H]3O)ncc2Cl)c1)C(C)C [TA-20]	–	–	0.319	–	0.108	–	–	–	–
CC(C)c1c(C(C)(C)O)nc2ccc(-c3nc(N[C@@H]4CCOC[C@H]4O)ncc3Cl)cn12 [TA-25, (3S,4R)-4-((5-chloro-4-(2-(2-hydroxypropan-2-yl)-3-isopropylimidazo[1,2-a]pyridin-6-yl)pyrimidin-2-yl)amino)tetrahydro-2H-pyran-3-ol]	–	–	–	–	–	4.47	0.611	3.33	1.69
CC(C)c1c(C(C)(C)O)nc2c(F)cc(-c3nc(N[C@@H]4CCOC[C@H]4O)ncc3Cl)cn12 [TA-27, (3S,4R)-4-((5-chloro-4-(8-fluoro-2-(2-hydroxypropan-2-yl)-3-isopropylimidazo[1,2-a]pyridin-6-yl)pyrimidin-2-yl)amino)tetrahydro-2H-pyran-3-ol]	–	–	0.203	–	0.0218	–	–	–	–
COc1ncc(-c2nc(N[C@@H]3CCOC[C@H]3O)ncc2F)c2c1CCC2 [TA-34, (3S,4R)-4-((5-fluoro-4-(1-methoxy-6,7-dihydro-5H-cyclopenta[c]pyridin-4-yl)pyrimidin-2-yl)amino)tetrahydro-2H-pyran-3-ol]	–	–	2.58	–	0.729	–	–	–	–
CC1CC(=O)N(C)c2nc3c(F)cc(-c4nc(N[C@@H]5CCOC[C@H]5O)ncc4Cl)cc3n21 (stereo partly drawn) [TA-53, 7-(5-chloro-2-(((3S,4R)-3-hydroxytetrahydro-2H-pyran-4-yl)amino)pyrimidin-4-yl)-9-fluoro-1,4-dimethyl-3,4-dihydrobenzo[4,5]imidazo[1,2-a]pyrimidin-2(1H)-one]	–	–	–	–	–	3.53	0.92	1	1.77
CC(C)n1c(N2CCOC2=O)nc2c(F)cc(-c3nc(N[C@@H]4CCOC[C@H]4O)ncc3Cl)cc21 [TB-24]	–	–	–	–	–	–	–	–	3.14
CC(C)n1c(N2CCOC2=O)nc2c(F)cc(-c3nc(N[C@@H]4CCOC[C@H]4O)ncc3C(F)(F)F)cc21 [TB-27]	–	–	–	–	–	–	–	–	3.69
CN1CCCn2c1nc1c(F)cc(-c3nc(NC4CCN(S(C)(=O)=O)CC4)ncc3Cl)cc12 [TB-43, 5-chloro-4-(9-fluoro-1-methyl-1,2,3,4-tetrahydrobenzo[4,5]imidazo[1,2-a]pyrimidin-7-yl)-N-(1-(methylsulfonyl)piperidin-4-yl)pyrimidin-2-amine]	≤ 0.5	≤ 0.5	0.2	≤ 0.5	0.0186	–	–	–	–
C[C@H]1CCN(C)c2nc3c(F)cc(-c4nc(Nc5ccncc5)ncc4Cl)cc3n21 [TB-137, (S)-5-chloro-4-(9-fluoro-1,4-dimethyl-1,2,3,4-tetrahydrobenzo[4,5]imidazo[1,2-a]pyrimidin-7-yl)-N-(pyridin-4-yl)pyrimidin-2-amine]	≤ 0.5	≤ 0.5	0.0952	≤ 0.5	0.0127	–	–	–	–
